Assay results taken from patent US20220289816A1, “IMMUNOTHERAPY WITH B*07 RESTRICTED PEPTIDES AND COMBINATION OF PEPTIDES AGAINST CANCERS AND RELATED METHODS” (Immatics Biotechnologies GmbH, priority 2018, published 2022).

tested on: CD8+ T cells; assay: In vitro immunogenicity: in vitro T-cell priming assay with aAPCs loaded with peptide/MHC complexes and anti-CD28 antibody, pMHC multimer readout; format: cell-based, human; conditions: Table 10a, pMHC multimer readout after priming of CD8+ T cells
Description: In order to obtain information regarding the immunogenicity of the TUMAPs of the present invention, the inventors performed investigations using an in vitro T-cell priming assay based on repeated stimulations of CD8+ T cells with artificial antigen presenting cells (aAPCs) loaded with peptide/MHC complexes and anti-CD28 antibody.
In order to perform in vitro stimulations by artificial antigen presenting cells loaded with peptide-MHC complex (pMHC) and anti-CD28 antibody, the inventors first isolated CD8+ T cells from fresh HLA-B*07 leukapheresis products via positive selection using CD8 microbeads (Miltenyi Biotec, Bergisch-Gladbach, Germany) of healthy donors obtained from the University clinics Mannheim, Germany, after informed consent.
PBMCs and isolated CD8+ lymphocytes were incubated in T-cell medium (TCM) until use consisting of RPMI-Glutamax (Invitrogen, Karlsruhe, Germany) supplemented with 10% heat inactivated human AB serum (PAN-Biotech, Aidenbach, Germany), 100 U/ml Penicillin/100 μg/ml Streptomycin (Cambrex, Cologne, Germany), 1 mM sodium pyruvate (CC Pro, Oberdorla, Germany), 20 μg/ml Gentamycin (Cambrex). 2.5 ng/ml IL-7 (PromoCell, Heidelberg, Germany) and 10 U/ml IL-2 (Novartis Pharma, Nürnberg, Germany) were also added to the TCM at this step.
Generation of pMHC/anti-CD28 coated beads, T-cell stimulations and readout was performed in a highly defined in vitro system using four different pMHC molecules per stimulation condition and 8 different pMHC molecules per readout condition.
The purified co-stimulatory mouse IgG2a anti human CD28 Ab 9.3 (Jung et al., 1987) was chemically biotinylated using Sulfo-N-hydroxysuccinimidobiotin as recommended by the manufacturer (Perbio, Bonn, Germany). Beads used were 5.6 μm diameter streptavidin coated polystyrene particles (Bangs Laboratories, Illinois, USA).
800.000 beads/200 μl were coated in 96-well plates in the presence of 4×12.5 ng different biotin-pMHC, washed and 600 ng biotin anti-CD28 were added subsequently in a volume of 200 μl. Stimulations were initiated in 96-well plates by co-incubating 1×10^6 CD8+ T cells with 2×10^5 washed coated beads in 200 μl TCM supplemented with 5 ng/ml IL-12 (PromoCell) for 3 days at 37° C. Half of the medium was then exchanged by fresh TCM supplemented with 80 U/ml IL-2 and incubating was continued for four days at 37° C. This stimulation cycle was performed for a total of three times. For the pMHC multimer readout using 8 different pMHC molecules per condition, a two-dimensional combinatorial coding approach was used as previously described (Andersen et al., 2012) with minor modifications encompassing coupling to five different fluorochromes. Finally, multimeric analyses were performed by staining the cells with Live/dead near IR dye (Invitrogen, Karlsruhe, Germany), CD8-FITC antibody clone SK1 (BD, Heidelberg, Germany) and fluorescent pMHC multimers. For analysis, a BD LSRII SORP cytometer equipped with appropriate lasers and filters was used. Peptide specific cells were calculated as percentage of total CD8+ cells. Evaluation of multimeric analysis was done using the FlowJo software (Tree Star, Oregon, USA). In vitro priming of specific multimer+CD8+ lymphocytes was detected by comparing to negative control stimulations.

| Substance | Wells positive [%] |
| --- | --- |
| 445 (RPAATAVISL; listed as Homo sapiens) [compound 445] | + (<20% = +) |
| 410 (SPRSWIQVQI; listed as Homo sapiens) [compound 410] | + (<20% = +) |
| 443 (VPDGVSKVL; listed as Homo sapiens) [compound 443] | +++ (50%-69% = +++) |
| 393 (APAAWLRSA; listed as Homo sapiens) [compound 393] | +++ (50%-69% = +++) |
| 398 (SPASRSISL; listed as Homo sapiens) [compound 398] | + (<20% = +) |
| 414 (KPSESIYSAL; listed as Homo sapiens) [compound 414] | ++ (20%-49% = ++) |
| 408 (YPKDIYSSF; listed as Homo sapiens) [compound 408] | ++ (20%-49% = ++) |
| 427 (VPSSRILQL; listed as Homo sapiens) [compound 427] | +++ (50%-69% = +++) |
| 425 (YPRGNHWAVGHL; listed as Homo sapiens) [compound 425] | ++ (20%-49% = ++) |
| 423 (SPRVYWLGL; listed as Homo sapiens) [compound 423] | ++++ (>=70% = ++++) |
| 388 (SPSVSQLSVL; listed as Homo sapiens) [compound 388] | ++++ (>=70% = ++++) |
| 389 (APLPRPGAVL; listed as Homo sapiens) [compound 389] | ++ (20%-49% = ++) |
| 391 (APRPASSL; listed as Homo sapiens) [compound 391] | + (<20% = +) |
| 406 (LPDGSRVEL; listed as Homo sapiens) [compound 406] | ++++ (>=70% = ++++) |
| 419 (SPMWHVQQL; listed as Homo sapiens) [compound 419] | ++++ (>=70% = ++++) |
| 392 (GPQPWHAAL; listed as Homo sapiens) [compound 392] | ++ (20%-49% = ++) |
| 411 (IPNWARQDL; listed as Homo sapiens) [compound 411] | ++++ (>=70% = ++++) |
| 429 (RPRALRDLQL; listed as Homo sapiens) [compound 429] | ++ (20%-49% = ++) |
| 430 (RPRALRDLQLL; listed as Homo sapiens) [compound 430] | +++ (50%-69% = +++) |
| 437 (FPYPYAERL; listed as Homo sapiens) [compound 437] | +++ (50%-69% = +++) |
| 390 (SPRMSGLLSQT; listed as Homo sapiens) [compound 390] | +++ (50%-69% = +++) |
| 440 (YPRTITPGM; listed as Homo sapiens) [compound 440] | + (<20% = +) |
| 415 (LPSDSHFKITF; listed as Homo sapiens) [compound 415] | ++ (20%-49% = ++) |
| 407 (FPRLVGPDF; listed as Homo sapiens) [compound 407] | +++ (50%-69% = +++) |
| 399 (NPFYPEVEL; listed as Homo sapiens) [compound 399] | + (<20% = +) |
| 405 (LPFDGPGGIL; listed as Homo sapiens) [compound 405] | ++++ (>=70% = ++++) |
| 433 (IPEPSAQQL; listed as Homo sapiens) [compound 433] | + (<20% = +) |
| 418 (RPMTPTQIGPSL; listed as Homo sapiens) [compound 418] | + (<20% = +) |
| 396 (VPDVAQFVL; listed as Homo sapiens) [compound 396] | ++ (20%-49% = ++) |
| 420 (SPRWLPVSL; listed as Homo sapiens) [compound 420] | ++++ (>=70% = ++++) |

same assay, conditions: Table 10b, pMHC multimer readout after priming of CD8+ T cells

| Substance | Wells positive [%] |
| --- | --- |
| 59 (KPRTIYSSL; listed as Homo sapiens) [compound 59] | + (<20% = +) |
| 365 (RPKHFLQML; listed as Homo sapiens) [compound 365] | + (<20% = +) |
| 48 (RPRYSIGL; listed as Homo sapiens) [compound 48] | + (<20% = +) |
| 1 (RPRSLQCVSL; listed as Homo sapiens) [compound 1] | + (<20% = +) |
| 366 (SPTLRQLDL; listed as Homo sapiens) [compound 366] | ++ (20%-49% = ++) |
| 56 (LPALLRSGLTL; listed as Homo sapiens) [compound 56] | +++ (50%-69% = +++) |
| 3 (MPYVVLTAL; listed as Homo sapiens) [compound 3] | + (<20% = +) |
| 45 (TRPWSGPYIL; listed as Homo sapiens) [compound 45] | + (<20% = +) |
| 53 (SPRIPFSTF; listed as Homo sapiens) [compound 53] | + (<20% = +) |

molecular target: HLA-B*07 (Homo sapiens, UniProt P01889); assay: MHC binding assay (UV-ligand exchange, ELISA of stabilized MHC complexes); conditions: peptide exchange yield on HLA-B*07, UV-ligand exchange
Method in brief: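 Peptide–MHC complexes were made by UV-ligand exchange, in which a UV-cleavable peptide is replaced by the test peptide. Exchange yield was measured by ELISA of stabilized complexes on streptavidin-coated plates, using HRP anti-β2m detection (1 h, 37 °C), TMB substrate and absorbance at 450 nm.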

| Substance | Peptide exchange |
| --- | --- |
| 59 (KPRTIYSSL; listed as Homo sapiens) [compound 59] | ++++ (>75% = ++++) |
| 365 (RPKHFLQML; listed as Homo sapiens) [compound 365] | ++++ (>75% = ++++) |
| 48 (RPRYSIGL; listed as Homo sapiens) [compound 48] | +++ (>50 = +++) |
| 1 (RPRSLQCVSL; listed as Homo sapiens) [compound 1] | ++++ (>75% = ++++) |
| 366 (SPTLRQLDL; listed as Homo sapiens) [compound 366] | ++++ (>75% = ++++) |
| 56 (LPALLRSGLTL; listed as Homo sapiens) [compound 56] | ++++ (>75% = ++++) |
| 3 (MPYVVLTAL; listed as Homo sapiens) [compound 3] | ++++ (>75% = ++++) |
| 45 (TRPWSGPYIL; listed as Homo sapiens) [compound 45] | +++ (>50 = +++) |
| 53 (SPRIPFSTF; listed as Homo sapiens) [compound 53] | ++++ (>75% = ++++) |
| 467 (VPRNQDWLGVSRQL; listed as Homo sapiens) [compound 467] | ++++ (>75% = ++++) |
| 177 (VWEPQGSSRSL; listed as Homo sapiens) [compound 177] | +++ (>50 = +++) |
| 311 (APRLALDPDAL; listed as Homo sapiens) [compound 311] | ++++ (>75% = ++++) |
| 13 (LPNTGRIGQL; listed as Homo sapiens) [compound 13] | +++ (>50 = +++) |
| 153 (QPVHSLCSA; listed as Homo sapiens) [compound 153] | ++++ (>75% = ++++) |
| 169 (RPFSVSSISQL; listed as Homo sapiens) [compound 169] | ++++ (>75% = ++++) |
| 481 (SPARALLLALA; listed as Homo sapiens) [compound 481] | +++ (>50 = +++) |
| 367 (APQVHIFSL; listed as Homo sapiens) [compound 367] | ++++ (>75% = ++++) |
| 192 (IPFADVKSF; listed as Homo sapiens) [compound 192] | ++ (>20% = ++) |
| 355 (APKTSFIAA; listed as Homo sapiens) [compound 355] | ++++ (>75% = ++++) |
| 312 (SPSLQSSRESL; listed as Homo sapiens) [compound 312] | +++ (>50 = +++) |
| 495 (SPSYTQASL; listed as Homo sapiens) [compound 495] | ++++ (>75% = ++++) |
| 491 (MPEADLKRIF; listed as Homo sapiens) [compound 491] | ++ (>20% = ++) |
| 189 (QPQCSTHIL; listed as Homo sapiens) [compound 189] | ++++ (>75% = ++++) |
| 63 (FPHMATTAF; listed as Homo sapiens) [compound 63] | +++ (>50 = +++) |
| 460 (APLMPLGKTL; listed as Homo sapiens) [compound 460] | ++++ (>75% = ++++) |
| 30 (YPGFTKRL; listed as Homo sapiens) [compound 30] | +++ (>50 = +++) |
